Measurements: patent publication EP3892734B1, “SCREENING METHODS AND THERAPEUTIC APPLICATIONS BASED ON BACTERIAL MOTILITY INHIBITION” (Ludwig-Maximilians-Universität München, priority 2020, dated 2021)
“Also recorded” adds a separate entry of the source.

Columns and labels:
[1] = system: flagellin protein FlaA; experiment: Western immunoblot of flagellin FlaA in bacterial fractions; format: cell-based, H. pylori; conditions: Western blot, soluble and surface-associated fractions, time point T2
Text: • Fig. 1: Developing and establishing a screening system by primary luciferase-based reporter screen for flagellar expression and biosynthesis of H. pylori in multi-well plates and identification of active small compounds by the screen. A) Results of luciferase flagellar reporter screen for one exemplary library of more than 1200 compounds; each dot represents one compound result. […] Inhibitory as well as enhancing activities of the compounds were observed. Yellow markings depict the borders of the Z-factor, corresponding to the three-fold standard error of the positive (non-inhibited) controls. […] Tracking assays with H. pylori were performed in liquid medium (RPMI1640 with 3% horse serum) and movies recorded in a CELL-R live imaging system (Olympus, see methods). A) Stops/reversals during the swimming runs of the bacteria as a measure of intact taxis and directional motility and curvilinear velocity (CLV) were quantitated as described in (Behrens et al., 2016). […] Two different time points of an H. pylori growth curve in liquid BHI medium (3% yeast extract, 5% horse serum), T1 (early exponential) T2 (late exponential growth) were monitored for differences in protein expression in the presence (+) or absence of Active 2 compound. […] Highquality sequences obtained from cagL positive PCRs in the absence of positive culture are boxed; respective Sanger sequence reads are shown in B). […]

[2] = system: H. pylori; experiment: therapeutic treatment in chronic H. pylori mouse infection model (cfu counts, cagL PCR); format: in vivo, C57B/L6 mice; conditions: for reduction of colony-forming units (cfus) / bacterial loads in stomach: metronidazole 14.3 mg/kg/day, intragastric gavage
Method: 6-8 weeks old specific pathogen-free C57B/L6 mice were obtained from Charles River Laboratories. They were acclimatized to the new surroundings for one week before starting the assays. For the whole duration of the experiment, mice had access to sterile chow and sterile water ad libitum. In week one of the experiment, H. pylori was administered at 3×10^8 bacteria per mouse per inoculum (100 µl) on two days with one day of break in between. The proof-of-principle treatment was started two weeks after the end of the inoculation week, assuming a stable infection at this time point. The mice were treated in separate groups (8-14 animals per group), as outlined in the results, with compound(s), antibiotic (metronidazole at 14.3 mg/kg/day), a combination of both antibiotic and compound (for concentrations, see Results), or mock-treated once daily over seven consecutive days by intra-gastric gavage. After the treatment week, the mice were kept for another two weeks under normal housing and feeding conditions with sterilized chow and sterile water ad libitum. At the end of the assay period (week seven), the mice were necropsied by cervical dislocation under CO2 anesthesia. The animal experiments were authorized under German federal law by the LAVES (Lower Saxony Government Authority).
Then, BL2 was further tested for therapeutic efficacy in a mouse model of chronic H. pylori infection (Fig. 5). Six groups of mice (10 mice per group in each of the four infected and/or treated groups, and six mice in both of the control groups) were established in this mouse treatment trial. For the treatment groups, mice were infected in week one (using ca. 3×10^8 bacteria per animal; Methods), and the chronic infection was manifested for two more weeks. The once-daily treatment (intragastric gavage) started in week four on seven consecutive days. For the treatment groups, three H. pylori-infected groups were evaluated in parallel. One dose of treatment was given daily.
Group one was treated with metronidazole (14.3 mg/kg/day) only, an established anti-H. pylori antibiotic. The antibiotic concentration corresponds to concentrations routinely used in human treatment. Group two was treated with metronidazole (dosed at 14.3 mg/kg/day) and BL2 (10 mg/kg/day) in combination, and group three received BL2 (10 mg/kg/day) only. In addition, one infected and mock-treated group was kept as positive control, and two mock-infected groups were set aside, one for administering BL2 only (10 mg/kg/day; microbiota compound control) and one which was mock-infected and mock-treated (microbiota null control).
The read-out of successful treatment was the reduction of colony-forming units (cfus) of bacteria in infected and treated mice, over infected, non-treated, mice, at the end of the experiment. […] All mice in the infected positive control group were colonized (both cfu counts and PCR-positive), although the cfu counts in three positive animals were rather low.

[3] = BL2 10 mg/kg/day, once daily, 7 days, versus infected control

Structure (SMILES): Cn1c(CSC(=N)N)c(Cl)c(=O)n1-c1ccccc1 [Active 2]
- amount of major flagellin FlaA [1]: significant reduction of main flagellin FlaA at time point T2
- amount of major flagellin FlaA ([1]; listed as Active 2/BL2): reduced the amounts of the major flagellin, FlaA
- reduction of colony-forming units (cfus) / bacterial loads in stomach ([2]; BL2 10 mg/kg/day, once daily, 7 days, versus infected control, listed as BL2): therapeutically effective; also recorded: significant activity in vivo; also recorded: significant therapeutic activity; also recorded: significantly effective in reducing bacterial loads
- reduction of colony-forming units (cfus) / bacterial loads in stomach ([2]; BL2 10 mg/kg/day, once daily, 7 days, versus infected control, listed as active 2/BL2): therapeutically active
- cfu counts in the antrum [2, 3]: statistically significant reduction of cfu counts in the antrum
- cfus in the corpus [2, 3]: trend towards reduced cfus
- gene-specific (cagL) PCR signal in stomach homogenates ([2]; two weeks post-treatment, listed as BL2): strong reduction of gene-specific PCR signal; also recorded: below detection levels
